# Key:
# Assay type in all cases: in vivo
# [1] = test system: Musca domestica strain WHO-N; test: Musca domestica test (MUSCDO surface treatment & contact assay); conditions: 24 hours after contact, read-out: efficacy (mortality); for mortality at 20 mg/m2: surface concentration 20 mg/m^2, exposure 30 minutes
# Method: Musca domestica test (MUSCDO surface treatment & contact assay)
# (§1) Solvent: Aceton+2000 ppm rapeseed oil methyl ester (RME)
# (§2) In order to produce a sufficient, active ingredient containing solution it is necessary to solve the test compound in the solvent-mix (acetone at 2 mg/ml/RME 2000 ppm). This solution is pipetted onto a glazed tile and after evaporation of the acetone, adult flies of the species Musca domestica strain WHO-N are placed onto the dried surface. The exposure time is 30 minutes.
# Mortality in percent (%) is determined 24 hours after contact of the insects to the treated surface. 100% morality means that all tested insects are dead, whereas 0% means that no insect died.
# Ctenocephalides felis [2] = test: Ctenocephalides felis in-vitro contact test, adult cat flea; conditions: 5 μg/cm^2 (=500 g/ha), after 48 hours, adult cat fleas, read-out: efficacy (fleas dead or moribund)
# Outline: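 Compound in acetone coated onto inner walls of glass tubes, e.g. 900 ppm giving 5 μg/cm². After drying, 5–10 adult C. felis added per tube and held at room temperature. At 48 h, fleas unable to escape a 45–50 °C heating plate within 5 min scored dead/moribund, giving % efficacy.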
# Rhipicephalus sanguineus = Rhipicephalus sanguineus in-vitro contact test, adult brown dog ticks; conditions: 5 μg/cm^2 (=500 g/ha), after 48 hours, read-out: efficacy (ticks dead or moribund)
# Method: Rhipicephalus Sanguineus—In-Vitro Contact Tests with Adult Brown Doe Ticks
# 9 mg compound is solved in 1 ml acetone and diluted with acetone to the desired concentration. 250 μl of the test solution is filled in 25 ml glass test tubes and homogeneously distributed on the inner walls by rotation and tilting on a shaking device (2 h at 30 rpm). With a compound concentration of 900 ppm, an inner surface of 44.7 cm^2 and a homogeneous distribution, a dose of 5 μg/cm^2 is achieved.
# After the solvent has evaporated, each test tube is filled with 5-10 adult brown dog ticks (Rhipicephalus sanguineus), closed with a perforated lid and incubated in a lying position at room temperature and relative humidity. After 48 hours efficacy is determined. The ticks are patted on the ground of the tubes and are incubated on a heating plate at 45-50° C. for at most 5 minutes. Immotile or uncoordinated moving ticks, which are not able to escape the heat by climbing upwards, are marked as dead or moribund.
# An efficacy of 100% means all ticks are dead or moribund; 0% means no ticks are dead or moribund.
# [3] = test system: Aedes aegypti strain MONHEIM; test: Aedes aegypti test (AEDSAE surface treatment & contact assay); conditions: 24 hours after contact, read-out: efficacy (mortality); for mortality at 4 mg/m2: surface concentration 4 mg/m^2, exposure 30 minutes; for mortality at 20 mg/m2: surface concentration 20 mg/m^2, exposure 30 minutes
# Outline: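 Compound dissolved in acetone (2 mg/ml) with 2000 ppm rapeseed oil methyl ester, applied to glazed tile and dried; adult strain MONHEIM mosquitoes exposed 30 minutes. Percent mortality scored 24 hours after contact.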
# Spodoptera frugiperda = Spodoptera frugiperda spray test; conditions: 168 h, after 7 days, larvae on maize leaf sections
# Outline: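 Read-out: % larval mortality at day 7, where 100% means all killed and 0% none killed. Compound diluted in water with 1000 ppm emulsifier, sprayed onto Zea mays leaf sections; dried sections then infested with S. frugiperda larvae.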
# Meloidogyne incognita = Meloidogyne incognita test; conditions: 20 ppm; after 14 days; salad seedlings
# Method: Meloidogyne incognita—Test Solvent: 125.0 parts by weight of acetone To produce a suitable preparation of active compound, 1 part by weight of active compound is mixed with the stated amount of solvent, and the concentrate is diluted with water to the desired concentration. Vessels are filled with sand, a solution of the active ingredient, a suspension containing eggs and larvae of the southern root-knot nematode (Meloidogyne incognita) and salad seeds. The salad seeds germinate and the seedlings grow. Galls develop in the roots. After 14 days the nematicidal activity is determined on the basis of the percentage of gall formation. 100% means no galls were found and 0% means the number of galls found on the roots of the treated plants was equal to that in untreated control plants.
# Nezara viridula = Nezara viridula spray test; conditions: 96 h, after 4 days, larvae on barley plants
# Outline: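 Mortality (%) was assessed at day 4, from 0% (no bugs dead) to 100% (all dead). The spray solution was compound diluted to test concentration in water with 1000 ppm emulsifier and applied to barley carrying southern green stink bug larvae.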
# Boophilus microplus = Boophilus microplus injection test; conditions: Rhipicephalus microplus, 168 h; 20 μg/animal injected into the abdomen; adult engorged female ticks; egg deposition after 7 days; read-out: efficacy (infertile eggs)
# Outline: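 Efficacy, from 0% (all eggs fertile) to 100% (all infertile), was scored on eggs laid by five engorged adult females. Each female was injected intra-abdominally with 1 μl of compound solution in DMSO. Fertile egg laying was checked at 7 days, with uncertain eggs kept until hatching at about 42 days.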
# Myzus persicae = Myzus persicae oral test; conditions: 120 h, after 5 days
# Outline: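 Aphid mortality (%) was recorded 5 days after a mixed Myzus persicae population began sucking, through parafilm, on compound solutions (acetone stock diluted with water) combined with sugar-supplemented IPL41 medium.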
# Phaedon cochleariae = Phaedon cochleariae spray test; conditions: foliar, 168 h, after 7 days, larvae on Chinese cabbage leaf disks
# Method: Phaedon Cochleariae—Spray Test
# (§3) To produce a suitable preparation of active compound, 1 part by weight of active compound is mixed with the stated amount of solvents and is diluted with water, containing an emulsifier concentration of 1000 ppm, to the desired concentration. Further test concentrations are prepared by dilution with emulsifier containing water.
# Chinese cabbage (Brassica pekinensis) leaf disks are sprayed with a preparation of the active ingredient of the desired concentration. Once dry, the leaf disks are infested with mustard beetle larvae (Phaedon cochleariae).
# After 7 days mortality in % is determined. 100% means all beetle larvae have been killed and 0% means none of the beetle larvae have been killed.
# Diabrotica balteata = Diabrotica balteata spray test; conditions: Diabrotica balteata, in Triticum aestivum, 168 h, after 7 days, larvae on wheat seeds, read-out: efficacy (seedlings grown up); for pest or weed control at 80 µg/disc, 250 g/ha: 80 μg/well (=250 g/ha); for pest or weed control at 160 µg/disc, 500 g/ha: 160 μg/well (=500 g/ha)
# Outline: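 Scoring at 7 days compares seedling growth with untreated, uninfested controls (100% = equal growth, 0% = none grown). Wheat seedlings germinated 1 day on agar, 5 per well, received a spray of test solution made in 1000 ppm emulsifier water. Each unit then received 10–20 beetle larvae.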
# Ctenocephalides felis [4] = test: Ctenocephalides felis oral test; conditions: 48 h, 100 ppm in cattle blood, after 2 days, adult unfed cat fleas
# Outline: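 Compound dissolved in DMSO and diluted in cattle blood to test concentration, offered to ~20 unfed adult fleas via a parafilm-sealed blood chamber held at 37° C (fleas at room temperature). Kill recorded at 2 days as % mortality.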
# Tetranychus urticae = Tetranychus urticae spray test (OP-resistant); conditions: foliar, 144 h, after 6 days, French bean leaf disks
# Method: Tetranychus urticae—Spray Test (OP-Resistant)
# as §3
# French bean (Phaseolus vulgaris) leaf disks infected with all instars of the two spotted spidermite (Tetranychus urticae), are sprayed with a preparation of the active ingredient of the desired concentration.
# After 6 days mortality in % is determined. 100% means all spider mites have been killed and 0% means none of the spider mites have been killed.
# [5] = test system: Blattella germanica strain PAULINIA; test: whole plant or invertebrate; conditions: read-out: efficacy (mortality)
# Method: Blattella Germanica Test (BLTTGE Surface Treatment & Contact Assay)
# as §1
# as §2, with “animals” for “flies”, “Blattella germanica” for “Musca domestica”, “PAULINIA” for “WHO-N”
# Mortality in percent (%) is determined 24 hours after contact of the insects to the treated surface. 100% mortality means that all tested insects are dead, whereas 0% means that no insect died.
# [6] = test system: Culex quinquefasciatus strain P00; test: Culex quinquefasciatus test (CULXFA surface treatment & contact assay); conditions: 24 hours after contact, read-out: efficacy (mortality)
# Outline: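 Compound dissolved in acetone (2 mg/ml) with 2000 ppm rapeseed oil methyl ester, applied to glazed tile and dried; adult C. quinquefasciatus strain P00 exposed to surface for 30 minutes. Mortality (%) scored 24 hours after contact.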
# [7] = surface concentration 4 mg/m^2, exposure 30 minutes
structure (smiles),measurement,setting,value
C[C@H](NC(=O)c1cc(Cl)cc(C(F)(F)F)c1)c1ncnn1-c1ncc(C#N)cn1 [Example I-010],mortality at 20 mg/m2,[1],90 to 100%
same,pest or weed control at 5 µg/cm2,Ctenocephalides felis [2],100%
same,pest or weed control at 5 µg/cm2,Rhipicephalus sanguineus,100%
same,mortality at 4 mg/m2,[3],90 to 100%
same,mortality at 20 mg/m2,[3],90 to 100%
same,mortality at 100 g/ha,Spodoptera frugiperda,100%
same,mortality at 500 g/ha,Spodoptera frugiperda,100%
same,nematicidal activity (gall formation),Meloidogyne incognita,100%
same,mortality at 100 g/ha,Nezara viridula,100%
same,mortality at 500 g/ha,Nezara viridula,100%
same,pest or weed control at 0.02 mg,Boophilus microplus,100%
same,mortality at 4 ppm,Myzus persicae; 4 ppm,100%
CC(c1ncnn1-c1ncc(C#N)cn1)N(CC1CC1)C(=O)c1cc(Cl)cc(C(F)(F)F)c1 (stereo not drawn) [Example I-008],mortality at 500 g/ha,Phaedon cochleariae,100%
same,"pest or weed control at 80 µg/disc, 250 g/ha",Diabrotica balteata,100%
same,"pest or weed control at 160 µg/disc, 500 g/ha",Diabrotica balteata,100%
same,mortality at 100 g/ha,Spodoptera frugiperda,100%
same,mortality at 500 g/ha,Spodoptera frugiperda,100%
same,mortality at 100 g/ha,Nezara viridula,90%
same,mortality at 500 g/ha,Nezara viridula,90%
same,mortality at 20 ppm,Myzus persicae,100%
CC(c1ncnn1-c1nccs1)N(CC1CC1)C(=O)c1cc(Cl)cc(C(F)(F)F)c1 (stereo not drawn) [Example I-003],mortality at 500 g/ha,Phaedon cochleariae,100%
same,mortality at 100 ppm,Ctenocephalides felis [4],100%
same,"pest or weed control at 80 µg/disc, 250 g/ha",Diabrotica balteata,100%
same,"pest or weed control at 160 µg/disc, 500 g/ha",Diabrotica balteata,100%
same,pest or weed control at 5 µg/cm2,Ctenocephalides felis [2],100%
same,mortality at 500 g/ha,Spodoptera frugiperda,100%
same,mortality at 500 g/ha,Tetranychus urticae,90%
same,pest or weed control at 0.02 mg,Boophilus microplus,100%
same,mortality at 20 ppm,Myzus persicae,90%
C[C@H](NC(=O)c1cc(Cl)cc(C(F)(F)F)c1)c1ncnn1-c1ncc(OC(F)(F)F)cn1 [Example I-011],mortality at 4 mg/m2,[1]; [7],90 to 100%
same,mortality at 20 mg/m2,[1],90 to 100%
same,mortality at 100 ppm,Ctenocephalides felis [4],100%
same,mortality at 20 mg/m2,[5],80 to 100%
same,"pest or weed control at 80 µg/disc, 250 g/ha",Diabrotica balteata,100%
same,"pest or weed control at 160 µg/disc, 500 g/ha",Diabrotica balteata,100%
same,pest or weed control at 5 µg/cm2,Ctenocephalides felis [2],100%
same,mortality at 4 mg/m2,[3],90 to 100%
same,mortality at 20 mg/m2,[3],90 to 100%
same,mortality at 100 g/ha,Spodoptera frugiperda,100%
same,mortality at 500 g/ha,Spodoptera frugiperda,100%
same,mortality at 500 g/ha,Nezara viridula,100%
same,pest or weed control at 0.02 mg,Boophilus microplus,100%
same,mortality at 4 mg/m2,[6]; [7],90 to 100%
same,mortality at 20 mg/m2,"[6]; surface concentration 20 mg/m^2, exposure 30 minutes",90 to 100%
COc1cc(C)nc(-n2ncnc2C(C)N(CC2CC2)C(=O)c2cc(Cl)cc(C(F)(F)F)c2)n1 (stereo not drawn) [Example I-001],"pest or weed control at 160 µg/disc, 500 g/ha",Diabrotica balteata,100%
same,nematicidal activity (gall formation),Meloidogyne incognita,100%
CC(c1ncnn1-c1ccn(C)n1)N(CC1CC1)C(=O)c1cc(Cl)cc(C(F)(F)F)c1 (stereo not drawn) [Example I-006],mortality at 500 g/ha,Phaedon cochleariae,100%
same,mortality at 100 ppm,Ctenocephalides felis [4],100%
same,"pest or weed control at 80 µg/disc, 250 g/ha",Diabrotica balteata,100%
same,"pest or weed control at 160 µg/disc, 500 g/ha",Diabrotica balteata,100%
same,mortality at 500 g/ha,Spodoptera frugiperda,100%
same,pest or weed control at 0.02 mg,Boophilus microplus,100%
same,mortality at 20 ppm,Myzus persicae,100%
"Cc1cc(C)nc(-n2ncnc2C(C)N(CC2CC2)C(=O)c2cc(Cl)cc(C(F)(F)F)c2)n1 (stereo not drawn) [Example I-002, 3-Chloro-N-(cyclopropylmethyl)-N-{1-[1-(4,6-dimethylpyrimidin-2-yl)-1H-1,2,4-triazol-5-yl]ethyl}-5-(trifluoromethyl)benzamide]",nematicidal activity (gall formation),Meloidogyne incognita,90%

# — patent US12171229B2, “Heteroaryl-triazole and heteroaryl-tetrazole compounds as pesticides” (BAYER AKTIENGESELLSCHAFT, priority 2018, dated 2024)
